Legend:
[1] = TMA-DPH probe fluorescence anisotropy in RBCM liposomes; set-up: species or system human; conditions: negative = increase in anisotropy
Text: Two types of liposomes were used to study interactions with biological membranes: liposomes mimicking the composition of cancer cell membranes (mimic membrane liposome—MM) and liposomes formed from lipids extracted from human blood erythrocyte membranes (red blood cell membrane liposome—RBCM). […] The RBCM liposome was according to the methodology described previously[42] with minor modifications[43]. Both lipids, dissolved in chloroform (MM liposome) and n-decane (RBCM liposome), were evaporated under a nitrogen atmosphere, and then dried in a desiccator for 90 min under a vacuum. The obtained dry lipid film was hydrated in phosphate buffer, pH 7.4, obtaining a concentration of 0.1 mg/ml, and then vortexed for one minute until a homogeneous, milky suspension was observed. The mixture was sonicated (Sonic, Milano, Italia) for 15 min keeping the sample in a bath of ice water, thus providing a cooling temperature of 0 °C. The suspension was then processed (extrusion) through polycarbonate filters with pore diameters of 100 and 200 nm using a Lipex extruder (Evonik). Liposomes, which had been prepared according to this procedure, was used in fluorimetric studies.
To investigate these properties three fluorescent probes were used: MC540, TMA-DPH, and DPH. MC540 localizes to the outer, hydrophilic part of the membrane, within the region of the glycerol skeleton[44]. […] The TMA-DPH and DPH probes are supposed to locate nearer to the interface and in the hydrophobic region, respectively[45]. The measurement of changes in the anisotropy of the TMA-DPH and DPH probes allowed us to reflect the mobility of the fluorescent probes in the membrane, and therefore to determine the fluidity of the bilayer[46]. Fluorescence anisotropy was calculated using the formula[47]:1 A=I‖-GI⊥/I‖+2GI⊥ where I‖ and I⊥ are the intensity of fluorescence in parallel and perpendicular directions, to the plane of polarization of the excitation wave, respectively. G is an apparatus constant that depends on the emission wavelength.
(§1) Liposomes (the concentration of lipids in the sample was 0.1 mg/ml) were incubated for 30 min with the appropriate probe (dissolved in DMF, 1 µM concentration), and then the tested anthocyanins were added (final concentration of 1 to 30 µM). The control sample consisted of liposomes and a fluorescent probe. Fluorescence was measured on a fluorimeter (Cary Eclipse, Varian, San Diego, USA) at 37 °C. The excitation wavelengths λex and emission wavelengths λem respectively: MC540—λexc = 540 nm, λem = 590 nm; DPH—λexc = 360 nm, λem = 425 nm. nm; TMA-DPH—λexc = 340 nm, λem = 430 nm.

[2] = DPH fluorescence quenching, dissociation constant with MM liposome membrane; type: binding; conditions: 37 °C
Procedure: (§2) Two types of liposomes were used to study interactions with biological membranes: liposomes mimicking the composition of cancer cell membranes (mimic membrane liposome—MM) and liposomes formed from lipids extracted from human blood erythrocyte membranes (red blood cell membrane liposome—RBCM). […] Both lipids, dissolved in chloroform (MM liposome) and n-decane (RBCM liposome), were evaporated under a nitrogen atmosphere, and then dried in a desiccator for 90 min under a vacuum. The obtained dry lipid film was hydrated in phosphate buffer, pH 7.4, obtaining a concentration of 0.1 mg/ml, and then vortexed for one minute until a homogeneous, milky suspension was observed. The mixture was sonicated (Sonic, Milano, Italia) for 15 min keeping the sample in a bath of ice water, thus providing a cooling temperature of 0 °C. The suspension was then processed (extrusion) through polycarbonate filters with pore diameters of 100 and 200 nm using a Lipex extruder (Evonik). Liposomes, which had been prepared according to this procedure, was used in fluorimetric studies.
(§3) The phenomenon of quenching the fluorescence of the DPH probe by biologically active substances enabled us to evaluate the partition coefficient (Kd, dissociation constant) of anthocyanins with both MM and RBCM liposome membranes. For this purpose, changes in the fluorescence intensity of this probe were checked and the coefficient was calculated using the equation[48]:2 1/F0/F-1=Kd/[liposomes]×1/[anthocyanins]+1/liposomes where F0—fluorescence intensity in the absence of anthocyanins (control sample), F—fluorescence intensity in the presence of anthocyanins, [liposomes]—concentration of liposomes in mg/ml, [anthocyanins]—concentration of anthocyanins tested mg/ml.
as §1

[3] = biological target: human serum albumin (HSA) (Homo sapiens, UniProt P02768); test: Quenching of natural fluorescence of human serum albumin; type: binding; conditions: HSA […] 10^–5 M, 37 °C
Procedure: The phenomenon of quenching the natural fluorescence of human serum albumin (HSA) was used to investigate the potential interaction of anthocyanins with this protein. […] Anthocyanins with concentrations ranging from 1 to 30 µM were added to HSA dissolved in phosphate buffer (1.5 × 10^–5 M) and then incubated at 37 °C for 20 min. Emission spectra were performed on a fluorimeter Cary Eclipse (Varian, San Diego, USA) at 37 °C. HSA fluorescence was excited with a wavelength of λ = 280 nm, the emission was measured in the range from 286 to 460 nm, and the fluorescence intensity was read at 345 nm where the emission maximum of HSA was located.
The Stern–Volmer equation was used to thoroughly describe the quenching mechanism of natural fluorescence and to determine the bindings parameters of HSA: anthocyanin complexes:4 F0/F=1+Kqτ0Q=1+KSV[Q] where F0—fluorescence intensity in the absence of anthocyanins (control sample), F—fluorescence intensity in the presence of anthocyanins, KSV—Stern–Volmer quenching constant (KSV = Kq·τ0), [Q]—concentration of quencher (tested compound), Kq—bimolecular quenching constant, τ0—a lifetime of the fluorophore in the absence of quencher the fluorescence lifetime of a biopolymer is calculated as 5 × 10^–9 s[51].
The apparent binding constants (Kb) and the number of binding sites (n) can be calculated using the following equation:5 log(F0-F/F]=logKb+nlog[Q]
F0 and F are the fluorescence intensities before and after the addition of the quencher. From the linear plot of log (F0 − F)/F versus log [Q], the value of Kb was obtained from the intercept.

[4] = TMA-DPH probe fluorescence anisotropy in MM liposomes; conditions: negative = increase in anisotropy
[5] = DPH probe fluorescence anisotropy in RBCM liposomes; set-up: species or system human; conditions: RBCM, negative = increase in anisotropy
Procedure: as §2
(§4) To investigate these properties three fluorescent probes were used: MC540, TMA-DPH, and DPH. MC540 localizes to the outer, hydrophilic part of the membrane, within the region of the glycerol skeleton[44]. Changes in the fluorescence intensity of this probe were formulated as the relative change in intensity to the control as a function of anthocyanins concentration. The TMA-DPH and DPH probes are supposed to locate nearer to the interface and in the hydrophobic region, respectively[45]. The measurement of changes in the anisotropy of the TMA-DPH and DPH probes allowed us to reflect the mobility of the fluorescent probes in the membrane, and therefore to determine the fluidity of the bilayer[46]. Fluorescence anisotropy was calculated using the formula[47]:1 A=I‖-GI⊥/I‖+2GI⊥ where I‖ and I⊥ are the intensity of fluorescence in parallel and perpendicular directions, to the plane of polarization of the excitation wave, respectively. G is an apparatus constant that depends on the emission wavelength.
as §1

[6] = MC540 probe fluorescence intensity in RBCM liposomes; set-up: species or system human; conditions: 37 °C, positive = decrease
Procedure: as §2, §4, §1

[7] = MC540 probe fluorescence intensity in MM liposomes; conditions: 37 °C, positive = decrease
HSA = tested on: HSA; set-up: method as in earlier work; conditions: cited from earlier work
pHbApr-1-Neo plasmid DNA = test: TCSPC-FCS of PicoGreen-labelled plasmid DNA with anthocyanins; type: binding
Procedure: To evaluate the biological interaction with DNA molecules the anthocyanins were initially dissolved in ETOH (1 mM). […] Mixing of such solutions with the aqueous DNA solutions used in the studies never exceeded 1% concentration ETOH (v/v) in the final solution. The DNA plasmid was labelled by PicoGreen (CPicoGreen/CDNAbp = 0.02)[52]. The pHbApr-1-Neo plasmid (10 kbp and contour length 3.4 µm) was a generous gift from the laboratory of Prof. Maciej Ugorski (Department of Biochemistry and Molecular Biology, Wrocław University of Environmental and Life Sciences Wroclaw, Poland). PicoGreen-labelled DNA samples mixed with the appropriate amount of anthocyanins were left overnight and then measured. The increasing concentration of anthocyanins in the tested samples was expressed as the ratio of the molar concentration of anthocyanins per molar concentration of DNA base pairs in a given sample (comp/bp). The 100 µl samples were measured in Ibidi 8-well chambers. Each point on the graph is a single sample (average of 10 measurements). All measurements were performed at room temperature (25 °C). Time-correlated single-photon counting fluorescence correlation spectroscopy (TCSPC-FCS) was used to study the interaction of plasmid DNA at the single molecule level with all tested anthocyanins. […] Low power of 1uW (at the back aperture of the objective) was chosen to minimize photobleaching and saturation. In the detection plane, a pinhole (50um in diameter) was used and the signal was collected by a single photon avalanche diode (SPAD, Microphoton Devices, Bolzano, Italy). Photon arrival times were stored using fast electronics (Picoharp 300, PicoQuant) in time-tagged time-resolved recording mode. Two independent times were assigned to each detected photon: (1) a time after the beginning of the measurement and (2) a time after the previous laser pulse. The FCS data analysis was done using home-built routines (DevC++, Bloodshed Software and OriginPro70, OriginLab Corporation). The TCSPC data analysis was performed using SymPhoTime software (PicoQuant). Further details of the data evaluation are given elsewhere.

[8] = DPH probe fluorescence anisotropy in MM liposomes; conditions: MM, negative = increase in anisotropy
Procedure: as §2, §4, §1

[9] = DPH fluorescence quenching, dissociation constant with RBCM liposome membrane; type: binding, human; conditions: 37 °C
Procedure: as §2, §3, §1

[10] = 30 µM, listed as delphinidin glucoside

Chain of human serum albumin (HSA) (P02768 25-609): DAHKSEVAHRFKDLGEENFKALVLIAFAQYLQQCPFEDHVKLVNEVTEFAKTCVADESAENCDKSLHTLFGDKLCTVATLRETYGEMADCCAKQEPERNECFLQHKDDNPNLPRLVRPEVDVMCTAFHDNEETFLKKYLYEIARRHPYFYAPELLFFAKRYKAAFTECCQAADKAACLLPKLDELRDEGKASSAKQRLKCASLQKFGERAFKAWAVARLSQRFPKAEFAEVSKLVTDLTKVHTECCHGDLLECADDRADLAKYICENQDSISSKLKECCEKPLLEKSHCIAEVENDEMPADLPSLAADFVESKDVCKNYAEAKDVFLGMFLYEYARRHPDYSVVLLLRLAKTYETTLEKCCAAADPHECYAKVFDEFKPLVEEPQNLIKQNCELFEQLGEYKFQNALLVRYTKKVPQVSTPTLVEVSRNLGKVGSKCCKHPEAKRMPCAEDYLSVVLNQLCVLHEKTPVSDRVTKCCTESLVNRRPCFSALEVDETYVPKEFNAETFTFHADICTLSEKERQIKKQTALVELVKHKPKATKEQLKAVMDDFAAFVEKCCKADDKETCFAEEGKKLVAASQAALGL

OCC1OC(Oc2cc3c(O)cc(O)cc3[o+]c2-c2cc(O)c(O)c(O)c2)C(O)C(O)C1O (centres unmarked) [Dp 3-glc, Delphinidin 3-O-glucoside]
Changes in TMA-DPH anisotropy relative to the control ([1]; 1 µM): -2.73±0.14% | Changes in TMA-DPH anisotropy relative to the control ([1]; 5 µM): -0.01±0.00% | Changes in TMA-DPH anisotropy relative to the control ([1]; 10 µM): 2.57±0.07% | Changes in TMA-DPH anisotropy relative to the control ([1]; 20 µM): 2.52±0.16% | Changes in TMA-DPH anisotropy relative to the control ([1]; 30 µM): 1.15±0.03% | Kd [2]: 93.6 ± 19.5 µM | Stern Volmer constant KSV [3]: 20.09 ± 2.57 × 10^3 M^−1 | number of binding sites n [3]: 0.96 ± 0.03 | Changes in TMA-DPH anisotropy relative to the control ([4]; 1 µM): -4.62±0.05% | Changes in TMA-DPH anisotropy relative to the control ([4]; 5 µM): -1.60±0.04% | Changes in TMA-DPH anisotropy relative to the control ([4]; 10 µM): 0.26±0.005% | Changes in TMA-DPH anisotropy relative to the control ([4]; 20 µM): 1.99±0.06% | Changes in TMA-DPH anisotropy relative to the control ([4]; 30 µM): 0.41±0.01% | Changes in DPH anisotropy relative to the control ([5]; 1 µM): -6.55±0.37% | Changes in DPH anisotropy relative to the control ([5]; 5 µM): -6.14±0.25% | Changes in DPH anisotropy relative to the control ([5]; 10 µM): -6.03±0.39% | Changes in DPH anisotropy relative to the control ([5]; 20 µM): -6.20±0.38% | Changes in DPH anisotropy relative to the control ([5]; 30 µM): -6.30±0.39% | Changes in MC540 fluorescence intensity relative to the control ([6]; 1 µM): 11.73±0.51% | Changes in MC540 fluorescence intensity relative to the control ([6]; 5 µM): 17.29±0.54% | Changes in MC540 fluorescence intensity relative to the control ([6]; 10 µM): 22.06±1.25% | Changes in MC540 fluorescence intensity relative to the control ([6]; 20 µM): 36.70±4.24% | Changes in MC540 fluorescence intensity relative to the control ([6]; 30 µM): 47.56±9.12% | Changes in MC540 fluorescence intensity relative to the control [6, 10]: 47.6 ± 9.1% | Changes in MC540 fluorescence intensity relative to the control ([7]; 1 µM): 3.27±0.12% | Changes in MC540 fluorescence intensity relative to the control ([7]; 5 µM): 5.73±0.30% | Changes in MC540 fluorescence intensity relative to the control ([7]; 10 µM): 10.51±0.55% | Changes in MC540 fluorescence intensity relative to the control ([7]; 20 µM): 20.30±0.93% | Changes in MC540 fluorescence intensity relative to the control ([7]; 30 µM): 30.30±0.19% | Changes in MC540 fluorescence intensity relative to the control [7, 10]: 30.3 ± 0.2% | affinity for HSA compared to aglycone (HSA): tenfold lower | tD changes, times smaller than those caused by Pt3-glc (pHbApr-1-Neo plasmid DNA): more than 5 times | lifetime (LT) (pHbApr-1-Neo plasmid DNA; 0 < comp/bp < 2, decrease from 4.25 ns): about 2.25 ns | lifetime (LT), plateau (pHbApr-1-Neo plasmid DNA; 2 < comp/bp < 5): about 2.1 ns | decrease in the diffusion time (tD) (pHbApr-1-Neo plasmid DNA; tested range of comp/bp from 0 to 5): 2.5 fold | Changes in DPH anisotropy relative to the control ([8]; 1 µM): -10.78±0.24% | Changes in DPH anisotropy relative to the control ([8]; 5 µM): -12.62±0.18% | Changes in DPH anisotropy relative to the control ([8]; 10 µM): -10.40±0.13% | Changes in DPH anisotropy relative to the control ([8]; 20 µM): -7.80±0.10% | Changes in DPH anisotropy relative to the control ([8]; 30 µM): -6.27±0.05% | Kd [9]: 13.4 ± 3.05 µM

Source: PMC10412636, “An analysis of interactions between three structurally diverse anthocyanidins, as well as their glucosides, and model biological membranes, albumin, and plasmid DNA” (Scientific Reports, 2023)
